Laboratory results as given in the NIST ThermoML archive (doi:10.1021/je100476h).

Assay: mn = molality of the nth substance listed, in mol/kg
Details: 101 kPa, Liquid

NCC(=O)O [2-aminoacetic acid] + O
mass density [kg/m3]
Details	m1 = 0.1429	m1 = 0.2709	m1 = 0.3812	m1 = 0.4102	m1 = 0.4801	m1 = 0.5732
288.15 K	1003.76	1007.85	1011.33	1012.23	1014.4	1017.27
298.15 K	1001.56	1005.54	1008.93	1009.8	1011.92	1014.71
308.15 K	998.477	1002.4	1005.73	1006.59	1008.66	1011.41
318.15 K	994.636	998.503	1001.79	1002.63	1004.67	1007.37

NCCCC(=O)O [4-aminobutanoic acid] + O
mass density [kg/m3]
Details	m1 = 0.04607	m1 = 0.09549	m1 = 0.1155	m1 = 0.1652	m1 = 0.1882	m1 = 0.2277
288.15 K	1000.54	1002.05	1002.65	1004.13	1004.83	1005.99
298.15 K	998.428	999.894	1000.48	1001.93	1002.61	1003.73
308.15 K	995.406	996.864	997.447	998.889	999.542	1000.66
318.15 K	991.616	993.071	993.654	995.086	995.747	996.868

NCCCCCC(=O)O [6-aminohexanoic acid] + O
mass density [kg/m3]
Details	m1 = 0.05814	m1 = 0.09073	m1 = 0.1798	m1 = 0.1945	m1 = 0.267	m1 = 0.3522
288.15 K	1000.76	1001.66	1004.09	1004.48	1006.41	1008.64
298.15 K	998.622	999.493	1001.84	1002.22	1004.08	1006.23
308.15 K	995.592	996.454	998.775	999.147	1000.99	1003.12
318.15 K	991.793	992.649	994.956	995.328	997.158	999.27

CC(=O)[O-].CC(=O)[O-].[Mg+2] [magnesium acetate] + O
mass density [kg/m3]
Details	288.15 K	298.15 K	308.15 K	318.15 K
m1 = 0.1	1007.01	1004.9	1001.84	998.062
m1 = 0.25	1018.2	1016.05	1012.89	1009.15
m1 = 0.5	1035.44	1033.15	1030.05	1026.24
m1 = 1	1064.68	1061.74	1059.65	1055.19

CC(=O)[O-].[Na+] [sodium ethanoate] + O
mass density [kg/m3]
Details	288.15 K	298.15 K	308.15 K	318.15 K
m1 = 0.1	1003.46	1001.31	998.243	994.384
m1 = 0.25	1009.6	1007.39	1004.27	1000.35
m1 = 0.5	1019.38	1017.07	1013.89	1009.85
m1 = 1	1037.22	1034.76	1031.54	1027.23

O [water] + CC(=O)[O-].[Na+]
Details	mass density [kg/m3]
308.15 K, m2 = 0	994.063
